Results as given in US10195156B2, “Compounds and compositions for intracellular delivery of agents” (ModernaTX, Inc., priority 2015, dated 2019).
Like-named read-outs stand apart in the source and are kept apart here.

Key:
[1] = Particle size and polydispersity index of nanoparticle compositions (Zetasizer Nano ZS); type: physicochemical
Outline: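 Zetasizer Nano ZS; samples in 1×PBS; read-out: particle size plus polydispersity index.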

[2] = Encapsulation efficiency of RNA (QUANT-IT RIBOGREEN RNA assay); type: physicochemical
Outline: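 RiboGreen fluorescence (ex ~480, em ~520 nm) measured after 15 min at 37 °C on samples at ~5 μg/mL in TE, pH 7.5, ± 2% Triton X-100 solution. After blank subtraction, free RNA is given as intact-sample signal divided by disrupted-sample signal.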

[3] = pKa of nanoparticle compositions; type: physicochemical
[4] = Concentration of RNA in nanoparticle composition (ultraviolet-visible spectroscopy); type: physicochemical; settings: Table 5; hEPO mRNA; 40:20:38.5:1.5 Lipid:DOPE:Chol:PEG-DMG
Description: Ultraviolet-visible spectroscopy can be used to determine the concentration of a therapeutic and/or prophylactic agent (e.g., RNA) in nanoparticle compositions. 100 μL of the diluted formulation in 1×PBS is added to 900 μL of a 4:1 (v/v) mixture of methanol and chloroform. After mixing, the absorbance spectrum of the solution is recorded, for example, between 230 nm and 330 nm on a DU 800 spectrophotometer (Beckman Coulter, Beckman Coulter, Inc., Brea, Calif.). The concentration of therapeutic and/or prophylactic agent in the nanoparticle composition can be calculated based on the extinction coefficient of the therapeutic and/or prophylactic agent used in the composition and on the difference between the absorbance at a wavelength of, for example, 260 nm and the baseline value at a wavelength of, for example, 330 nm.

[5] = test system: luciferase (Luc) mRNA expression; assay: Expression of Luc induced by sample formulations, whole-body bioluminescence after intravenous administration; type: in vivo; settings: for Total Flux 3 hours / Total Flux 6 hours / Total Flux 24 hours: Table 2, mice, i.v., 0.5 mg/kg
Outline: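 Read-out is whole-body bioluminescence at 3, 6 and 24 h after a single intravenous dose of 0.5 mg/kg Luc mRNA in nanoparticle formulations. Groups of n=6 mice; PBS and standard MC3 formulation as references.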

[6] = test system: modified luciferase expression; assay: Expression of Luc in different organs (liver, lung, spleen, femur) 6 hours after intravenous administration; type: in vivo; settings: i.v., 0.5 mpk
Description: The efficacy of the nanoparticle compositions presented in Tables 1, 1a, 17-1, 19-1, 20-1 and 21-1 was further evaluated by measuring the expression of modified luciferase in the liver, lung, spleen, and femur upon administration of a given composition. Formulations were administered intravenously to mice (n=3) at a dosage of 0.5 mpk and bioluminescence measured after 6 hours. The standard MC3 formulation and a PBS control were also tested.

[7] = test system: IL-6; assay: Cytokine production induced by sample formulations: IL-6; type: in vivo; settings: Table 4; mice, i.v., 0.5 mpk, 6 hours; in pg/mL (unit assumed)
Outline: (§1)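 Cytokine levels were quantified at 6 hours in mice given the nanoparticle compositions i.v. at 0.5 mpk. MC3 standard formulation and PBS served as comparators.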

[8] = test system: IP-10; assay: Cytokine production induced by sample formulations: IP-10; type: in vivo; settings: Table 4; mice, i.v., 0.5 mpk, 6 hours; in pg/mL (unit assumed)
Outline: as §1

[9] = test system: hEPO mRNA expression; assay: Expression of hEPO in rats after intravenous administration; type: in vivo; settings: for hEPO (pg/mL) 6 hours / hEPO (pg/mL) 3 hours / hEPO (pg/mL) 24 hours: Table 6, 0.2 mg/kg or 0.5 mg/kg; for Lipid/MC3 hEPO S.D. (rats): hEPO expression relative to MC3, S.D. rats, intravenous
Description: PBS (phosphate buffered saline) is used as control.
Formulations were prepared according to Table 5 and included mRNA encoding hEPO.
[…] After the 48 hour time point, livers and spleens were harvested and frozen.

[10] = Lipid levels in liver and spleen 48 hours after administration; type: in vivo, rats; settings: 48 hours after administration; for concentration at 48 h: Sprague-Dawley, rat, intravenous
Description: Formulations were administered intravenously to rats (n=3 or 6) at a dosage of 0.2 mg/kg or 0.5 mg/kg (mpk) and hEPO levels measured at 3, 6, and 24 hour time points. After the 48 hour time point, livers and spleens were harvested and frozen.
The amount of lipid in the liver and spleen 48 hours after administration of a nanoparticle composition was also measured. […] In contrast, approximately 60% of doses including MC3 or Compound 22 remained in the liver after 48 hours. Less than 3% of the dose remained in the spleen for each composition tested.

[11] = test system: LDL-c; assay: LDL levels in LDLr−/− mice after mRNA encoding the LDL receptor; type: in vivo, LDLR knockout mice; settings: Mus musculus; Table 7b; LDLr−/− mice, 0.5 mpk, LDLr; read-out: LDL levels lipid/untreated LDLr−/− mice 0.5 mpk, LDLr
[12] = Tolerability / toxicity in rats (hEPO study); type: in vivo; settings: FIG. 8, i.v., 2 mg/kg dose
[13] = Table 1, rows without footnote mark
[14] = Table 1, rows without footnote mark (lipid:DOPE:cholesterol:PEG-DMG 40:20:38.5:1.5, Luc mRNA; MC3 standard formulation)
[15] = Table 5, hEPO mRNA, 40:20:38.5:1.5 Lipid:DOPE:Chol:PEG-DMG
[16] = Table 1, # formulated with hEPO mRNA
[17] = liver, read-out: Lipid in liver
[18] = spleen, read-out: Lipid in spleen

SMILES | PDI [1, 13] | Size (nm) [1, 14] [nm] | PDI [1, 15] | Size (nm) [1, 15] [nm] | EE (%) [2, 13] [%] | EE (%) [2, 15] [%] | pKa [3, 13] | Conc. [4] [µg/mL] | hEPO (pg/mL) 6 hours ([9]; rats, i.v.) [pg/mL] | PDI [1, 16] | Size (nm) [1, 16] [nm] | EE (%) [2, 16] [%] | pKa [3, 15] | hEPO (pg/mL) 3 hours ([9]; rats, i.v.) [pg/mL] | hEPO (pg/mL) 24 hours ([9]; rats, i.v.) [pg/mL] | Lipid/MC3 hEPO S.D. (rats) [9] | concentration at 48 h [10, 17] [ng/g] | concentration at 48 h [10, 18] [ng/g] | % remaining dose in liver ([10]; liver) [%] | % remaining dose in spleen ([10]; spleen) [%] | other results
CCCCCCCCCCCCCCN(CCCCCCCCCCCCCC)CCN1CCN(CCN(CCCCCCCCC)CCN(CCCCCCCCC)CCCCCCCCC)CC1 [Compound 20, N^1-(2-(4-(2-(Ditetradecylamino)ethyl)piperazin-1-yl)ethyl)-N^1,N^2,N^2-trinonylethane-1,2-diamine] | 0.150 | 106.4 | 0.14 | 114.5 | 84.2 | 94.39 | 6.12 | 1264.28 | 227420 | – | – | – | – | – | – | – | – | – | – | – | Total Flux 3 hours [5]: 1.00E+11; Total Flux 6 hours [5]: 1.11E+11; Total Flux 24 hours [5]: 4.60E+09; Total Flux Femur ([6]; Table 3, mice, femur): 8.91E+06; Total Flux Liver ([6]; Table 3, mice): 1.42E+10; Total Flux Lung ([6]; Table 3, mice): 1.46E+08; Total Flux Spleen ([6]; Table 3, mice): 6.11E+07; total flux in organs, rank or organ comparison (in words) ([6]; mice, each organ or overall): highest total flux; IL-6 [7]: 127; IP-10 [8]: 2080
CCCCCCCCCCCCN(CCCCCCCCCCCC)CCN(CCCCCCCCCCCC)CCN1CCN(CCN(CCCCCCCC)CCCCCCCC)CC1 [Compound 22, N^1-(2-(4-(2-(Dioctylamino)ethyl)piperazin-1-yl)ethyl)-N^1,N^2,N^2-tridodecylethane-1,2-diamine] | – | – | 0.13 | 75.4 | – | 98.29 | – | 564.97 | 267680 | 0.130 | 75.4 | 98.3 | 6.153 | 181627 | 75571 | 0.20 | 36800 | 3890 | 58.7 | 0.41 | pKa [3, 16]: 6.15; dose remaining in the liver after 48 hours ([10]; liver): approximately 60%
CCCCCCCCCCCCN(CCCCCCCCCCCC)CCN(CCCCCCCCCCCC)CCN1CCN(CCN(CCCCCCCCCCCC)CCCCCCCCCCCC)CC1 [KL22, N1-[2-(didodecylamino)ethyl]-N1,N4,N4-tridodecyl-1,4-piperazinediethanamine, reference compound] | – | – | – | – | – | – | – | – | – | – | – | – | – | – | – | – | – | – | – | – | hEPO expression in rats (in words) ([9]; FIG. 8, rats, i.v., 2 mpk (Graph A)): do not express hEPO in rats; response vs control in vivo at 0.5 mg/kg [11]: 51%; tolerability / toxicity in rats (in words) [12]: toxic
CCCCCCCCCCCCN(CCCCCCCCCCCC)CCN(CCCCCCCCCCCC)CCN1CCN(CCN(CCCCCCCCCCCC(=O)OC)CCCCCCCCCCCC(=O)OC)CC1 [Compound 16, Dimethyl 12,12′-((2-(4-(2-((2-(didodecylamino)ethyl)(dodecyl)amino)ethyl)piperazin-1-yl)ethyl)azanediyl)didodecanoate] | – | – | 0.14 | 77.4 | – | 98.22 | – | 665.11 | 41720 | 0.140 | 77.4 | 98.2 | 6.282 | 35387 | 17184 | 0.031 | 597 | 293 | 0.79 | 0.026 | pKa [3, 16]: 6.28; hEPO expression in rats, comparison (in words) ([9]; rats, i.v., 0.2 or 0.5 mg/kg, Tables 6, 7a): lowest hEPO expression at each time point
CCCCCCCCCCCCN(CCCCCCCCCCCC)CCN(CCCCCCCCCCCC)CCN1CCN(CCN(CCCCCCCCCCCC)CCCCCCCCCCCC(=O)OC)CC1 [Compound 15, Methyl 12-((2-(4-(2-((2-(didodecylamino)ethyl)(dodecyl)amino)ethyl)piperazin-1-yl)ethyl)(dodecyl)amino)dodecanoate] | – | – | 0.12 | 100.3 | – | 90.15 | – | 713.00 | 125320 | 0.120 | 100.3 | 90.2 | 6.323 | 103773 | 67965 | 0.095 | 3070 | 971 | 4.22 | 0.089 | pKa [3, 16]: 6.32
CCCCCCCCCCCCN(CCCCCCCCCCCC)CCN(CCCCCCCCCCCC)CCN1CCN(CCN(CCCCCC(=O)OCCCCC)CCCCCC(=O)OCCCCC)CC1 [Compound 14, Dipentyl 6,6′-((2-(4-(2-((2-(didodecylamino)ethyl)(dodecyl)amino)ethyl)piperazin-1-yl)ethyl)azanediyl)dihexanoate] | 0.008 | 88.7 | 0.14 | 76.8 | 96.6 | 98.91 | 6.31 | 603.76 | 158520 | – | – | – | 6.308 | 280973 | 58805 | 0.12 | 3990 | 1620 | 5.54 | 0.15 | Total Flux 3 hours [5]: 9.86E+08; Total Flux 6 hours [5]: 1.56E+09; Total Flux 24 hours [5]: 1.02E+08; Luc expression in mice compared with MC3 (in words) ([5]; Table 7a): significantly lower; Total Flux Liver ([6]; Table 3, mice): 2.62E+08; Total Flux Lung ([6]; Table 3, mice): 3.56E+06; Total Flux Spleen ([6]; Table 3, mice): 1.46E+07; IL-6 [7]: 17; IP-10 [8]: 209
CCCCCCCCCCCCN(CCCCCCCCCCCC)CCN(CCCCCCCCC)CC(=O)N1CCN(C(=O)CN(CCCCCCCCC)CCCCCCCCC)CC1 [Compound 6, 2-((2-(Didodecylamino)ethyl)(nonyl)amino)-1-(4-(dinonylglycyl)piperazin-1-yl)ethan-1-one] | 0.160 | 81.4 | – | – | 98.9 | – | 6.62 | – | – | – | – | – | – | – | – | – | – | – | – | – | response vs control in vivo at 0.5 mg/kg [11]: 91%
